Data on 10 compounds can be found in US7776855B2, “Antimicrobial oxazolidinone prodrugs” (Janssen Pharmaceutica N.V., priority 2006, dated 2010).

Each structure is given as a SMILES string. Converted amounts (≈) assume the structure as drawn. Where two headings read alike, the source gives them in different places.

Series [1] is described as follows: Prodrug Solubility (visual inspection in buffer). Format: physicochemical. Particulars: aqueous buffer, thermodynamic from solid. As for the experimental part: One mg of each compound was diluted with at least 100 μl of the designated buffer, vortexed vigorously for approximately 1 minute, and visually inspected. Sodium citrate (40 mM) was buffered to pH 4 and phosphate-buffered saline was buffered to pH 7. Solutions with no remaining particles were recorded with a solubility ≧to the starting concentration. Compound suspensions were further diluted in 0.1 mL increments followed by vortexing as above, until the prodrug was dissolved. Solubilities of prodrugs ranged from 1.0 mg/ml to >10 mg/ml. The term “ND” means not determined.

Series [2] can be described thus: Pharmacokinetics of Prodrugs in Animal Models, all species tested (summary). It counts as in vivo, mice, rats, or dogs. Particulars: for PK parameters, normalized to the dose, compared with the respective parameters for Compound 1: all species tested (Table 3a-3d); for conversion of the prodrug form in vivo: all species tested, inferred from PK parameters. As for the experimental part:
Animals were weighed and given the prodrug intravenously (mice, rats, or dogs) or orally (mice). The prodrugs were prepared immediately before dosing in 40 mM sodium citrate buffer, pH 4. Compound 1 was prepared in 20% HPβCD and warmed until dissolved (IV dosing), or in 0.5% methocel as a suspension (PO dosing). At 0, 0.08, 0.25, 0.5, 1, 2, 4, 6, 8, and 24 hours, blood was removed (via cardiac puncture in euthanized mice, via orbital sinus puncture in anesthetized rats, or via cephalic vein in conscious dogs) and 200 µL of the plasma supernatant was immediately frozen (−70° C.).
On the day of analysis, the samples were thawed on ice and 100 μL was diluted with 200 μL of acetonitrile. The samples were vortexed and then centrifuged at 3000×g for 5 minutes to pellet the precipitated plasma proteins. The supernatant was analyzed by HPLC, or by LC-MS-MS. A standard curve was constructed by spiking a known quantity of Compound 1 into plasma and then performing serial dilutions in the range of 0.01 to 10 μg/mL. Pharmacokinetic (PK) parameters were calculated by WinNonlin Pro, version 3.1.
The term “ND” means not determined. The term “NA” means not applicable. The dose of each prodrug was normalized to the Compound 1 dose. The values of the PK parameters for the prodrug form for Compounds 4a and 21a are based on the resulting accumulation and elimination of Compound 1.

The nature of series [3]: Solubility of Compound 1 in pH 4 buffer (24 h shaking, HPLC). Format: physicochemical. As to conditions: aqueous buffer, thermodynamic from solid, ambient temperature. As for the experimental part: The solubility of the active drug, Compound 1, was determined in a separate experiment in which an excess of the compound was added to pH 4 buffer. The mixture was shaken with a Burrell wrist action shaker at ambient temperature for 24 hours. Excess solute was removed by centrifugation, the supernatant was diluted with a suitable solvent, and the concentration of the compound was measured using HPLC. The solubility of Compound 1 at pH 4 was 0.007 mg/mL.

Series [4] relates to S. aureus Smith. The series can be described thus: Mouse Systemic Lethal Infection Model. Format: in vivo. Particulars: Staphylococcus aureus, female Swiss Webster mice, infected intraperitoneally, three day survival, prodrug ED50 normalized to content of Compound 1. As for the experimental part:
Female Swiss Webster mice weighing between 20-25 g were infected intraperitoneally with approximately 5×10^5 colony forming units (CFU) S. aureus Smith in 7% mucin. One hour later, the animals were given prodrug or Compound 1 intravenously or orally in a dose volume of 0.1 mL/10 g body weight. Each group consisted of eight animals. The prodrugs were prepared immediately before dosing in 40 mM sodium citrate buffer, pH 4. Compound 1 was prepared in 20% HPβCD and warmed until dissolved (IV dosing) or in 0.5% methocel (PO dosing) as a suspension. The mice were observed over a three day period and ED50 values were calculated from the resulting % survival curves (Table 2). The term “ND” means not determined. The prodrug ED50 values were normalized to the content of Compound 1.

Where [5] appears, read: 40 mM sodium citrate buffer, Sodium citrate (40 mM) pH 4, read-out: Solubility Sodium Citrate.
Setting [6] is: phosphate-buffered saline pH 7, read-out: Solubility Saline.

As usually defined, the solubility is the concentration that dissolves in the medium under given conditions. For the compound `CC(=O)N(C[C@H]1CN(c2ccc(N3Cc4cn(C)nc4C3)c(F)c2)C(=O)O1)C(=O)OC(C)OC(=O)CN1CCNCC1` (stereo partly drawn) [Compound 4b, Piperazin-1-yl-acetic acid 1-(acetyl-{(R)-3-[3-fluoro-4-(2-methyl-2,6-dihydro-4H-pyrrolo[3,4-c]pyrazol-5-yl)-phenyl]-2-oxo-oxazolidin-5-ylmethyl}-carbamoyloxy)-ethyl ester], in series [1] (setting [5]), the solubility at 1 min was at least 7500 µg/mL.

Take `CC(=O)N(C[C@H]1CN(c2ccc(N3Cc4cn(C)nc4C3)c(F)c2)C(=O)O1)C(=O)OCOC(=O)CN1CCOCC1` [Compound 6, Morpholin-4-yl-acetic acid (acetyl-{(R)-3-[3-fluoro-4-(2-methyl-2,6-dihydro-4H-pyrrolo[3,4-c]pyrazol-5-yl)-phenyl]-2-oxo-oxazolidin-5-ylmethyl}-carbamoyloxy)-methyl ester]: the solubility at 1 min was 2500 µg/mL (≈ 4.35 mM) in series [1] (setting [5]) and 1000 µg/mL (≈ 1.74 mM) in series [1] (setting [6]).

As for `CCOP(=O)(O)OCOC(=O)N(C[C@H]1CN(c2ccc(N3Cc4cn(C)nc4C3)c(F)c2)C(=O)O1)C(C)=O` [Compound 21a, Acetyl-{(R)-3-[3-fluoro-4-(2-methyl-2,6-dihydro-4H-pyrrolo[3,4-c]pyrazol-5-yl)-phenyl]-2-oxo-oxazolidin-5-ylmethyl}-carbamic acid ethoxy-hydroxy-phosphoryloxymethyl ester], in series [2], the “PK parameters, normalized to the dose, compared with the respective parameters for Compound 1” value is listed as “similar” and the “conversion of the prodrug form in vivo” value is “rapidly converted in vivo to Compound 1”. For the same compound, the solubility at 1 min in series [1] (Sodium citrate (40 mM) pH 4, read-out: Solubility Sodium Citrate) was at least 10000 µg/mL. For the same compound, in series [1] (setting [6]), the solubility at 1 min was at least 10000 µg/mL.

For orientation: ED50 means the dose that gives a 50% effect, or the effect in half of the subjects. On to `CC(=O)NC[C@H]1CN(c2ccc(N3Cc4cn(C)nc4C3)c(F)c2)C(=O)O1` [Compound 1], for which the solubility at 24 h in series [3] is 7 µg/mL (≈ 0.0187 mM). Also, the 50% effective dose (ED50) worked out at 3.3 mg/kg in series [4] (dosed intravenously one hour later, read-out: ED50 (95% Fiducial Limits) IV) and 3.5 mg/kg in series [4] (dosed orally one hour later, read-out: ED50 (95% Fiducial Limits) PO).

On to `CC(=O)N(C[C@H]1CN(c2ccc(N3Cc4cn(C)nc4C3)c(F)c2)C(=O)O1)C(=O)OCOC(=O)COP(=O)(O)O` [Compound 24, Phosphonooxy-acetic acid (acetyl-{(R)-3-[3-fluoro-4-(2-methyl-2,6-dihydro-4H-pyrrolo[3,4-c]pyrazol-5-yl)-phenyl]-2-oxo-oxazolidin-5-ylmethyl}-carbamoyloxy)-methyl ester], for which, in series [1] (setting [5]), the solubility at 1 min is at least 5000 µg/mL.

Consider `CC(=O)N(C[C@H]1CN(c2ccc(N3Cc4cn(C)nc4C3)c(F)c2)C(=O)O1)C(=O)OCOP(=O)(O)O` [Compound 18a, Acetyl-{(R)-3-[3-fluoro-4-(2-methyl-2,6-dihydro-4H-pyrrolo[3,4-c]pyrazol-5-yl)-phenyl]-2-oxo-oxazolidin-5-ylmethyl}-carbamic acid phosphonooxymethyl ester], for which the solubility at 1 min in series [1] (setting [5]) and in series [1] (setting [6]) was at least 2000 µg/mL throughout.

For the compound `CC(=O)N(C[C@H]1CN(c2ccc(N3Cc4cn(C)nc4C3)c(F)c2)C(=O)O1)C(=O)OCOC(=O)CN1CCNCC1` [Compound 4a, Piperazin-1-yl-acetic acid (acetyl-{(R)-3-[3-fluoro-4-(2-methyl-2,6-dihydro-4H-pyrrolo[3,4-c]pyrazol-5-yl)-phenyl]-2-oxo-oxazolidin-5-ylmethyl}-carbamoyloxy)-methyl ester], in series [2], the “PK parameters, normalized to the dose, compared with the respective parameters for Compound 1” value is on record as “similar” and the “conversion of the prodrug form in vivo” value is “rapidly converted in vivo to Compound 1”. Further, the solubility at 1 min in series [1] (setting [5]) is at least 10000 µg/mL. Besides, the solubility at 1 min in series [1] (setting [6]) was at least 10000 µg/mL.

In the case of `CNCC(=O)OCOC(=O)N(C[C@H]1CN(c2ccc(N3Cc4cn(C)nc4C3)c(F)c2)C(=O)O1)C(C)=O` [Compound 10, Methylamino-acetic acid (acetyl-{(R)-3-[3-fluoro-4-(2-methyl-2,6-dihydro-4H-pyrrolo[3,4-c]pyrazol-5-yl)-phenyl]-2-oxo-oxazolidin-5-ylmethyl}-carbamoyloxy)-methyl ester], the solubility at 1 min in series [1] (setting [5]) and in series [1] (setting [6]) was at least 10000 µg/mL each time.

Take `CC(=O)N(C[C@H]1CN(c2ccc(N3Cc4cn(C)nc4C3)c(F)c2)C(=O)O1)C(=O)OCOC(=O)CN(C)C` [Compound 5, Dimethylamino-acetic acid (acetyl-{(R)-3-[3-fluoro-4-(2-methyl-2,6-dihydro-4H-pyrrolo[3,4-c]pyrazol-5-yl)-phenyl]-2-oxo-oxazolidin-5-ylmethyl}-carbamoyloxy)-methyl ester]: the solubility at 1 min in series [1] (setting [5]) and in series [1] (setting [6]) was at least 10000 µg/mL each time.

In the case of `CC(=O)N(C[C@H]1CN(c2ccc(N3Cc4cn(C)nc4C3)c(F)c2)C(=O)O1)C(=O)OCOC(=O)CN1CCN(C)CC1` [Compound 8, (4-Methyl-piperazin-1-yl)-acetic acid (acetyl-{(R)-3-[3-fluoro-4-(2-methyl-2,6-dihydro-4H-pyrrolo[3,4-c]pyrazol-5-yl)-phenyl]-2-oxo-oxazolidin-5-ylmethyl}-carbamoyloxy)-methyl ester], the solubility at 1 min in series [1] (setting [5]) and in series [1] (setting [6]) was at least 10000 µg/mL each time.
